# Results: paper PMC8359193, “Summary of reference chemicals evaluated by the fish short‐term reproduction assay, OECD TG229, using Japanese Medaka, Oryzias latipes” (Journal of Applied Toxicology, 2021)
# Test system: Japanese medaka (Oryzias latipes)
# Assay: Fish short-term reproduction assay (FSTRA, OECD TG229), 21-day flow-through exposure
# Settings: for GSI Male / HSI Male / Length Male / Weight Male: at completion of exposure; for Fertility rate (%) / Mortality (%) Female / Mortality (%) Male / Number of fertilized eggs / Number of total eggs / SSC Female / SSC Male / VTG (ng/mg of liver) Female / VTG (ng/mg of liver) Male: 21 days
# Outline: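 Run to OECD TG229: mature NIES-R medaka pairs (3♂/3♀ per vessel, 4 vessels per treatment plus dilution water control) were dosed by continuous flow-through for 21 days. Test concentrations were spaced 2- to 5-fold. Daily spawned eggs were counted under the microscope for fertilized versus unfertilized.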
compound,measurement,setting,value
"C#C[C@]1(O)CC[C@H]2[C@@H]3CCC4=CC(=O)CC[C@@H]4[C@H]3CC[C@@]21CC [LNG, Levonorgestrel]",LOEC on female SSC (papillary process formation on anal fin),"21-day exposure, measured conc.",42.2 ng/L
same,concentration at which female hepatic VTG was significantly decreased,"highest concentration, 21-day exposure",226 ng/L
same,GSI Male,measured conc. 7.3 ng/L,0.82%
same,HSI Male,measured conc. 7.3 ng/L,2.0%
same,Length Male,measured conc. 7.3 ng/L,38.4 mm
same,Weight Male,measured conc. 7.3 ng/L,610 mg
same,GSI Male,measured conc. 42.2 ng/L,0.89%
same,HSI Male,measured conc. 42.2 ng/L,2.2%
same,Length Male,measured conc. 42.2 ng/L,38.8 mm
same,Weight Male,measured conc. 42.2 ng/L,691 mg
same,GSI Male,measured conc. 226 ng/L,0.76%
same,HSI Male,measured conc. 226 ng/L,2.1%
same,Length Male,measured conc. 226 ng/L,38.3 mm
same,Weight Male,measured conc. 226 ng/L,610 mg
same,Fertility rate (%),measured conc. 7.3 ng/L,87%
same,Mortality (%) Female,measured conc. 7.3 ng/L,0%
same,Mortality (%) Male,measured conc. 7.3 ng/L,0%
same,Number of fertilized eggs,measured conc. 7.3 ng/L,25
same,Number of total eggs,measured conc. 7.3 ng/L,29 ± 5.8 /female/day
same,SSC Female,measured conc. 7.3 ng/L,0 ± 0
same,SSC Male,measured conc. 7.3 ng/L,112 ± 4.5
same,VTG (ng/mg of liver) Female,measured conc. 7.3 ng/L,"2,370 ± 207 ng/mg of liver"
same,VTG (ng/mg of liver) Male,measured conc. 7.3 ng/L,2.8 ± 4.1 ng/mg of liver
same,Fertility rate (%),measured conc. 42.2 ng/L,82%
same,Mortality (%) Female,measured conc. 42.2 ng/L,8%
same,Mortality (%) Male,measured conc. 42.2 ng/L,0%
same,Number of fertilized eggs,measured conc. 42.2 ng/L,17
same,Number of total eggs,measured conc. 42.2 ng/L,21 ± 3.9 /female/day
same,SSC Female,measured conc. 42.2 ng/L,44 ± 10
same,SSC Male,measured conc. 42.2 ng/L,121 ± 8.6
same,VTG (ng/mg of liver) Female,measured conc. 42.2 ng/L,"2,350 ± 673 ng/mg of liver"
same,VTG (ng/mg of liver) Male,measured conc. 42.2 ng/L,0.8 ± 0.3 ng/mg of liver
same,Fertility rate (%),measured conc. 226 ng/L,82%
same,Mortality (%) Female,measured conc. 226 ng/L,0%
same,Mortality (%) Male,measured conc. 226 ng/L,0%
same,Number of fertilized eggs,measured conc. 226 ng/L,5.1
same,Number of total eggs,measured conc. 226 ng/L,5.9 ± 5.2 /female/day
same,SSC Female,measured conc. 226 ng/L,83 ± 5.4
same,SSC Male,measured conc. 226 ng/L,116 ± 10
same,VTG (ng/mg of liver) Female,measured conc. 226 ng/L,"1,120 ± 561 ng/mg of liver"
same,VTG (ng/mg of liver) Male,measured conc. 226 ng/L,0.6 ± 0.1 ng/mg of liver
same,"effect on fecundity (number of total eggs), in words","within the test concentrations, 21-day exposure",significant difference from the control
